Data from paper PMC11372076, “A dual inhibitor of PIP5K1C and PIKfyve prevents SARS-CoV-2 entry into cells” (Experimental & Molecular Medicine, 2024).
Where two headings read alike, the source gives them in different places.

How the values were obtained:
[1] = system: SARS-CoV-2; experiment: microbe, parasite or virus in culture; assay type: cell-based, SARS-CoV-2 (hCoV-19/Korea/KCDC06/2020); settings: for EC50: read-out: EC50 (reducing number of spike-positive cells by 50%)
[2] = in vitro; settings: African green monkey
[3] = system: ACE2-mediated endocytosis in HEK293T cells; assay type: cell-based; settings: 20 μg/mL spike-RBD, 2 h
[4] = system: Vero cells; experiment: Endosomal pH change test with acridine orange; assay type: cell-based; settings: 1 µM for 1 h
Description: This image-based experiment was performed according to our previous report with some modifications. Vero cells were cultured in a glass bottom 35 mm dish (6 × 10^4 cells per well) overnight. Each compound, including 1 µM UNC3230, apilimod or UNI418, was added to Vero cells for 1 h at 37 °C. The cells were stained with acridine orange (Sigma‒Aldrich, A9231) at a final concentration of 4 µg/mL for 30 min. After washing with PBS twice, images were acquired using a confocal microscope (Zeiss LSM 700, Baden-Württemberg, Germany) at two emission wavelengths, 493 to 560 nm and 590 to 720 nm, with excitation at 488 nm. The green-to-red ratio or vacuole size was measured using the built-in software ZEN 3.1.
Fig. 3 UNI418 negatively affects autophagosome-lysosome fusion and endosome acidification. a Live-cell imaging of HEK293T cells stably expressing mCherry-GFP-LC3 treated with 0.5 μM UNI418 at the indicated time points; the images within the white rectangular boxes are magnified on the right side. Scale bar, 30 µm. The number (b) and area (c) of GFP-positive dots per cell were quantified by ImageXpress. d Immunofluorescence images illustrating the inhibition of endolysosomal acidification by UNI418. Vero cells were treated with the mock control or 1 µM UNC3230, apilimod or UNI418 for 1 h at 37 °C. Acridine orange (4 µg/mL) was added to the compound-treated live cells, followed by additional incubation for 30 min. The cells were analyzed by confocal microscopy using two emission wavelengths at 493–560 (green) and 590–720 nm (red) after excitation at 488 nm. Merged images are presented, and images within the white rectangular boxes are magnified on the right side. Original magnification, 630×. The green-to-red fluorescence intensity ratio (e) and the area of fluorescent spots (f) were quantified. b, c, e, f The data are presented as the means ± SEMs, with a minimum of 200 spots. Statistical significance was determined by Student’s t test; *p < 0.05, **p < 0.01, ***p < 0.001 and ****p < 0.0001. n.s., not significant.

[5] = system: Vero cells
[6] = system: Wuhan-Hu-1 spike-pseudotyped virus; experiment: microbe, parasite or virus in culture; assay type: cell-based, SARS-CoV-2; settings: read-out: concentration that inhibited spike-mediated viral entry by 50% compared to maximal inhibition
[7] = system: RPE1 cells; experiment: Vacuolization analysis; assay type: cell-based
Description: CUGAUCAAGAU G A -3 and PIKfyve#2 siRNA 5'-
[…] -3'. siRNA oligonucleotides were purchased from Genolution, Sigma- Aldrich and Integrated DNA Technologies.
These siRNAs were transfected into the cell using lipofectamine RNAiMAX (Invitrogen, 13778150) following manufacturer ’s protocol.
RPE1 cells were treated with UNI418 at indicated concentration for over-night.
After that, the image was taken by EVOS M5000 (Thermo Fisher Scientific).
RPE1 cells were treated with UNI418 at the different concentration during the time. Live cell images were taken by Lionheart LX Automated Microscope and analyzed in Gen5 (Agilent).
RPE1 cells were treated with indicated doses of UNI418 overnight. To analyze PIP2 level by flow cytometry, trypsinized cells were fixed with 4% paraformaldehyde for 10 min at room temperature. The fixed cells were permeabilized with 0.2% PBS-T (Triton X-100) for 5min and blocked with 5% Bovine Serum Albumin (BSA), and stained with the primary antibody for 4h at 4°C. Cells were washed three times with 1% BSA-PBS and incubated with the fluorescence- conjugated secondary antibody Alexa Fluor® 488 AffiniPure Goat Anti-Mouse IgG (H+L) (Jackson ImmunoResearch,111- 545- 003) for 1h at room temperature analyzed by BD Accuri C6 Plus flow cytometer (BD Biosciences). […]

[8] = system: RPE1 cells; experiment: Western blot of autophagy-monitoring proteins SQSTM1/p62 and LC3-II; assay type: cell-based
Text: Fig. 2 UNI418 inhibits autophagy. a Western blot analysis of p62, LC3B-I, LC3B-II and GAPDH in the presence of UNC3230, apilimod and UNI418. b Immunofluorescence staining with LC3B (green) and p62 (red) antibodies upon treatment with UNC3230, apilimod and UNI418, and images within the white rectangular boxes are magnified on the right side. Scale bar, 20 µm. c The area of fluorescence intensity from immunofluorescence images (b) was quantified after UNC3230, apilimod and UNI418 treatments. d, e Quantification of autophagic flux under normal conditions and under HBSS-induced starvation conditions with or without UNI418 treatment. RPE1 cells were treated with UNI418 (0.5 µM or 1 µM) for 2 h in the presence or absence of a lysosomal inhibitor (bafilomycin A1, BFA). Representative Western blot images (d) and the graph showing the average of 4 independent experiments (e). The error bars indicate the S.D. Statistical analysis was performed using two-way ANOVA; *p < 0.05, ***p < 0.001.
Supplementary Materials and Methods
The whole cell extracts were prepared by lysis of harvested cells with M -PER Mammalian protein extraction reagent (Thermo Fisher Scientific). The protein concentrations were determined by Bradford protein assay (Bio- Rad). The 10 to 20 μ g of prepared proteins were separated by the SDS-PAGE and transferred to PVDF membrane, which were then blocked in 5% skim milk for 30 minutes at room temperature. […] The images were obtained and quantified by Fusion solo ChemiDoc system (Vilber).
Autophagic flux assay was analyzed essentially as previously described1,2.
Briefly, RPE1 cells were treated with UNI418 (0, 0.5, or 1 µM) for 2 h with/without bafilomycin A1 to inhibit lysosomal degradation under normal growth media or HBSS. […] The LC3- II bands were quantified using Fusion Solo ChemiDoc system (Vilber) and normalized to GAPDH bands.
Autophagy flux was calculated by subsidizing the lysosomal inhibitor-treated cells to non- treatment cells in both normal growth media and HBSS-induced starvation with 0, 0.5, or 1 µM UNI418. […]

[9] = system: cathepsin D; experiment: Cathepsin D maturation by Western blot; assay type: cell-based

For `CCC(CC)COC(=O)[C@H](C)N[P@](=O)(OC[C@H]1O[C@@](C#N)(c2ccc3c(N)ncnn23)[C@H](O)[C@@H]1O)Oc1ccccc1` [remdesivir], the EC50 ([1]; Severe acute respiratory syndrome coronavirus 2, Vero, 48 h) was 8.9 µM, the “selectivity index (SI), ratio of CC50 to EC50” value ([1]; Vero cells, Day 2) was over 11.2 and the CC50 [2] was over 100 µM.
In the case of `O=C(N/N=C/c1ccc(O)c(O)c1)c1cc2ccccc2cc1O` [dynasore], the “ACE2-mediated endocytosis triggered by spike-RBD” value ([3]; 0.1 mM dynasore) is reported as “successfully inhibited”.
With `NC(=O)c1nc(Nc2ccccc2)sc1NC(=O)C1CCCCC1` [UNC3230] the EC50 [1] was 95.1 µM, the “green-to-red ratio of fluorescent spots relative to mock-treated sample” value [4] was 2.6 fold and the “cytotoxicity on Day 2” value ([5]; Vero cells, Day 2) was “highly toxic”. The CC50 ([5]; mock-infected Vero cells, MTT, Day 1) was over 100 µM, the IC50 [6] was 4 µM and the vacuolization [7] was “did not induce vacuoles”. For the same molecule, the “ACE2-mediated endocytosis triggered by spike-RBD” value ([3]; 0.5 μM compound) was “successfully inhibited”, the “accumulation of SQSTM1/p62 and LC3-II” value [8] was “did not have the same effect” and the “proteolytic cleavage (maturation) of cathepsin D” value [9] was “did not”.
